“And” between values parts separate entries of the source, which are not always exact repeats. Identical values can stand only once. Inconclusive results and toxic doses are left out. No stated cut-off is given here; in the data, active means T/C of 150% or more; inactive means T/C below 125%.
Test system: L1210 leukemia ip in BDF1 mice, survival T/C
Assay: NCI In Vivo Anticancer Drug Screen. Data for tumor model L1210 Leukemia (intraperitoneal) in B6D2F1 (BDF1) mice
Conditions: endpoint: mean survival time, higher = longer survival
Outline: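 In this screen, tumor-bearing mice given compound are compared to those given vehicle, and their survival values are reported as a treated-to-control quotient.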

[1] = dose: 100.0 mg/kg/injection, schedule: Q01DX001 (ip), vehicle: Klucel (hydroxypropylcellulose) (HPC)
[2] = dose: 100.0 mg/kg/injection, schedule: Q04DX003 (ip), vehicle: Klucel (hydroxypropylcellulose) (HPC)
[3] = dose: 200.0 mg/kg/injection, schedule: Q01DX001 (ip), vehicle: Klucel (hydroxypropylcellulose) (HPC)
[4] = dose: 200.0 mg/kg/injection, schedule: Q04DX003 (ip), vehicle: Klucel (hydroxypropylcellulose) (HPC)
[5] = dose: 400.0 mg/kg/injection, schedule: Q01DX001 (ip), vehicle: Klucel (hydroxypropylcellulose) (HPC)
[6] = dose: 400.0 mg/kg/injection, schedule: Q04DX003 (ip), vehicle: Klucel (hydroxypropylcellulose) (HPC)
[7] = dose: 100.0 mg/kg/injection, schedule: Q04DX002 (ip), vehicle: Klucel (hydroxypropylcellulose) (HPC)

Measured: T/C

COC(C)c1cnccc1/C(C)=C1/Nc2ccccc2C1=O (stereo not given)
inactive: dose: 50.0 mg/kg/injection, schedule: Q04DX003 (ip), vehicle: Klucel (hydroxypropylcellulose) (HPC) 95 % of control | [1] 107 % of control | [2] 100 % of control and 91 % of control | [3] 94 % of control | [4] 96 % of control | [5] 97 % of control | [6] 97 % of control

O=C(NC(=S)Nc1ccc(F)cc1)c1ccccc1F
inactive: dose: 25.0 mg/kg/injection, schedule: Q01DX009 (ip), vehicle: gum acacia 104 % of control | dose: 50.0 mg/kg/injection, schedule: Q01DX009 (ip), vehicle: gum acacia 107 % of control | dose: 100.0 mg/kg/injection, schedule: Q01DX009 (ip), vehicle: gum acacia 96 % of control and 105 % of control

COC(=O)C(=O)CC(=O)c1ccc(C)cc1
inactive: [7] 103 % of control | dose: 200.0 mg/kg/injection, schedule: Q04DX002 (ip), vehicle: Klucel (hydroxypropylcellulose) (HPC) 95 % of control | dose: 400.0 mg/kg/injection, schedule: Q04DX002 (ip), vehicle: Klucel (hydroxypropylcellulose) (HPC) 106 % of control

O/N=C\c1ccccc1Cl
inactive: dose: 100.0 mg/kg/injection, schedule: Q01DX009 (ip), vehicle: saline with Tween-80 100 % of control | [2] 100 % of control | dose: 200.0 mg/kg/injection, schedule: Q01DX009 (ip), vehicle: saline with Tween-80 105 % of control | [4] 100 % of control | [6] 96 % of control

CCOC(=O)C(=[N+]=[N-])S(=O)(=O)c1ccccc1
inactive: dose: 100.0 mg/kg/injection, schedule: Q04DX003 (ip), vehicle: saline with Tween-80 97 % of control | dose: 200.0 mg/kg/injection, schedule: Q04DX003 (ip), vehicle: saline with Tween-80 101 % of control | dose: 400.0 mg/kg/injection, schedule: Q04DX003 (ip), vehicle: saline with Tween-80 114 % of control

O=C(NCCCl)NC1CCC2CCCCC2C1 (stereo not given)
inactive: [1] 100 % of control | [2] 92 % of control | [3] 102 % of control | [4] 97 % of control | [5] 92 % of control | [6] 97 % of control

Cc1ccc(N=Cc2ccc([N+](=O)[O-])s2)cc1Cl
inactive: [2] 91 % of control | [4] 89 % of control

Nc1ncc([N+](=O)[O-])s1
inactive: dose: 25.0 mg/kg/injection, schedule: Q04DX002 (ip), vehicle: Klucel (hydroxypropylcellulose) (HPC) 95 % of control | dose: 50.0 mg/kg/injection, schedule: Q01DX001 (ip), vehicle: saline 98 % of control | dose: 50.0 mg/kg/injection, schedule: Q04DX002 (ip), vehicle: Klucel (hydroxypropylcellulose) (HPC) 98 % of control | dose: 100.0 mg/kg/injection, schedule: Q01DX001 (ip), vehicle: saline 98 % of control | [7] 115 % of control | dose: 200.0 mg/kg/injection, schedule: Q01DX001 (ip), vehicle: saline 98 % of control

Source: PubChem BioAssay AID248 (DTP/NCI, 2004)
